From patent publication US9850283B2, “Macrocyclic inhibitors of the PD-1/PD-L1 and CD80(B7-1)/PD-L1 protein/protein interactions” (BRISTOL-MYERS SQUIBB COMPANY, priority 2013, dated 2017)
Starred links: 1 amine or outer side, 2 acyl side, 3 side chain; linkers in the order of their positions; H or OH if unused. Positions of bridges follow the written chain, without caps; N, C: chain ends. Non-standard residues stand in square brackets, D forms with d. Residues, ends and D or L forms follow the SMILES beside them. ξ: configuration not given here. ξPro(4S-NH2) = O=C(C1C[C@H](N[*:3])CN1[*:1])[*:2]; Phe(F5) = N[C@@H](Cc1c(F)c(F)c(F)c(F)c1F)C(=O)O; Phe(4-CHF2) = N[C@@H](Cc1ccc(C(F)F)cc1)C(=O)O; Bta = N[C@@H](Cc1csc2ccccc12)C(=O)O; cisHyp = O=C(O)[C@@H]1C[C@H](O)CN1; ξPro(4,4-F2) = O=C(O)C1CC(F)(F)CN1; ξW = NC(Cc1c[nH]c2ccccc12)C(=O)O; ξBta = NC(Cc1csc2ccccc12)C(=O)O; NMeNle = CCCC[C@H](NC)C(=O)O; NMeA = CN[C@@H](C)C(=O)O; Orn = NCCC[C@H](N)C(=O)O; Sar = CNCC(=O)O

What was measured:
Human PD-L1/PD-1 = target: T1, Human PD-L1/PD-1 (Homo sapiens, UniProt Q9NZQ7); test: HTRF PD-1-Ig/PD-L1-His binding assay (human PD-L1); details: cluster symbol; read-out: HTRF IC50 cluster
T1 construct: made in house; host or cells: HEK293T
T1 sequence (Q9NZQ7 with tags, fused parts or gaps): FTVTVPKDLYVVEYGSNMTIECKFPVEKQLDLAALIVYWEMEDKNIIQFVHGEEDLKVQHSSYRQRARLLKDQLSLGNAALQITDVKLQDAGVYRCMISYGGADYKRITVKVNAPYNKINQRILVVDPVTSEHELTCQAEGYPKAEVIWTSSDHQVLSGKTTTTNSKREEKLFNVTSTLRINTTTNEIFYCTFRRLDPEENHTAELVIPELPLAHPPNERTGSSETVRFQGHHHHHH
Procedure, shortened: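 The time-resolved fluorescence signal comes from Eu-cryptate anti-Ig (1 nM) and APC anti-His (20 nM) antibodies bound to a PD-1-Ig/PD-L1-His complex. Both partners lack transmembrane regions.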

[1] = target: T2, LK35.2-hPD-L1 cells / PE-labeled PD-1-Ig (Homo sapiens, UniProt Q9NZQ7); test: LK35.2-hPD-L1 cell binding high-content screening assay; format: cell-based; details: cluster symbol; cell line of CBA not given (LK35.2-hPD-L1 or 293T-hPD-L1); read-out: CBA IC50 cluster
T2 construct: expressed in transfected cells; host or cells: LK35.2 mouse B cell line
T2 sequence (Q9NZQ7 19-290): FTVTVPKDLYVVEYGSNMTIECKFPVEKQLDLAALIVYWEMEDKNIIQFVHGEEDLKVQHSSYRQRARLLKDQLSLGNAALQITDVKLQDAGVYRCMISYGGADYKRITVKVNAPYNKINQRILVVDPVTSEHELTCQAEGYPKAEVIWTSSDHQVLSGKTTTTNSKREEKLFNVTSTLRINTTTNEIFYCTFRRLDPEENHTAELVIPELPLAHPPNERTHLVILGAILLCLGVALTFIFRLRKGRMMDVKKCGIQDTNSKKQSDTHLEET
Procedure, shortened: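 Mouse LK35.2 B cells stably overexpressing human PD-L1 were cultured overnight in RPMI with 10% FCS, then given compound and PE-labeled human PD-1-Ig (1 nM final) for 1 h at 37 °C. After three dPBS washes, bound fluorescence was quantified by high-content imaging.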

Compound	IC50 (Human PD-L1/PD-1) [nM]	IC50 [1] [nM]
CCCC[C@H]1C(=O)N(C)[C@@H](CCCC)C(=O)N[C@@H](CCCNC(=N)N)C(=O)N[C@H](C(=O)NCC(N)=O)CSCC(=O)N[C@@H](Cc2ccc(C(F)F)cc2)C(=O)N(C)[C@@H](C)C(=O)N[C@@H](CC(N)=O)C(=O)N2CCC[C@H]2C(=O)N[C@@H](Cc2cnc[nH]2)C(=O)N[C@@H](CC(C)C)C(=O)N2CCC[C@H]2C(=O)N[C@@H](Cc2c[nH]c3ccccc23)C(=O)N[C@@H](CO)C(=O)N[C@@H](Cc2csc3ccccc23)C(=O)N1C [Example 1044] ({CH2CO}-[Phe(4-CHF2)][NMeA]NPHLPWS[Bta][NMeNle][NMeNle]RCG-NH2; thioether N-14)	> 30.5	> 74.3
CCCC[C@H]1C(=O)N(C)[C@@H](CCCC)C(=O)N[C@@H](CCCNC(=N)N)C(=O)N[C@H](C(=O)NCC(N)=O)CSCC(=O)N[C@@H](Cc2ccc(O)cc2)C(=O)N(C)[C@@H](C)C(=O)N[C@@H](CC(N)=O)C(=O)N2C[C@@H](N)CC2C(=O)N[C@@H](Cc2cnc[nH]2)C(=O)N[C@@H](CC(C)C)C(=O)N2CCC[C@H]2C(=O)N[C@@H](Cc2c[nH]c3ccccc23)C(=O)N[C@@H](CO)C(=O)NC(Cc2csc3ccccc23)C(=O)N1C (stereo partly drawn) [Example 1046] ({CH2CO}-Y[NMeA]N[ξPro(4S-NH2)]HLPWS[ξBta][NMeNle][NMeNle]RCG-NH2; thioether N-14)	6.76 to 30.3	4.78 to 72.9
C=CCCCCC[C@H]1C(=O)N(C)[C@@H](CCCCCC=C)C(=O)N[C@@H](CCCNC(=N)N)C(=O)N[C@H](C(=O)NCC(N)=O)CSCC(=O)N[C@@H](Cc2ccccc2)C(=O)N(C)[C@@H](C)C(=O)N[C@@H](CC(N)=O)C(=O)N2CCC[C@H]2C(=O)N[C@@H](Cc2cnc[nH]2)C(=O)N[C@@H](CC(C)C)C(=O)N(C)CC(=O)N[C@@H](Cc2c[nH]c3ccccc23)C(=O)N[C@@H](CO)C(=O)N[C@@H](Cc2c[nH]c3ccccc23)C(=O)N1C [Example 1047]	> 30.5	> 74.3
CCCC[C@H]1C(=O)N(C)[C@@H](CCCC)C(=O)N[C@@H](CCCNC(=N)N)C(=O)N[C@H](C(=O)NCC(N)=O)CSCC(=O)N[C@@H](Cc2ccc(O)cc2)C(=O)N(C)[C@@H](C)C(=O)N[C@@H](CC(N)=O)C(=O)N2CC(F)(F)CC2C(=O)N[C@@H](Cc2cnc[nH]2)C(=O)N[C@@H](CC(C)C)C(=O)N2CCC[C@H]2C(=O)NC(Cc2c[nH]c3ccccc23)C(=O)N[C@@H](CO)C(=O)N[C@@H](Cc2csc3ccccc23)C(=O)N1C (stereo partly shown) [Example 1048] ({CH2CO}-Y[NMeA]N[ξPro(4,4-F2)]HLP[ξW]S[Bta][NMeNle][NMeNle]RCG-NH2; thioether N-14)	6.76 to 30.3	0.158 to 4.71
CCCC[C@H]1C(=O)N(C)[C@@H](CCCC)C(=O)N[C@@H](C)C(=O)N[C@H](C(=O)NCC(N)=O)CSCC(=O)N[C@@H](Cc2ccc(O)cc2)C(=O)N(C)[C@@H](C)C(=O)N[C@@H](CC(N)=O)C(=O)N2CCC[C@H]2C(=O)N[C@@H](Cc2cnc[nH]2)C(=O)N[C@@H](CC(C)C)C(=O)N2CCC[C@H]2C(=O)N[C@@H](Cc2c[nH]c3ccccc23)C(=O)N[C@@H](CO)C(=O)N[C@@H](Cc2csc3ccccc23)C(=O)N1C [Example 1049] ({CH2CO}-Y[NMeA]NPHLPWS[Bta][NMeNle][NMeNle]ACG-NH2; thioether N-14)	6.76 to 30.3	0.158 to 4.71
CCCC[C@H]1C(=O)N(C)[C@@H](CCCC)C(=O)N[C@@H](C)C(=O)N[C@H](C(=O)NCC(N)=O)CSCC(=O)N[C@@H](Cc2ccc(O)cc2)C(=O)N(C)[C@@H](C)C(=O)N[C@@H](CC(N)=O)C(=O)N2CCC[C@H]2C(=O)N[C@@H](Cc2cnc[nH]2)C(=O)N[C@@H](CC(C)C)C(=O)N2CCC[C@H]2C(=O)N[C@@H](Cc2c[nH]c3ccccc23)C(=O)N[C@@H](Cc2ccc(O)cc2)C(=O)N[C@@H](Cc2csc3ccccc23)C(=O)N1C [Example 1050] ({CH2CO}-Y[NMeA]NPHLPWY[Bta][NMeNle][NMeNle]ACG-NH2; thioether N-14)	> 30.5	4.78 to 72.9
CCCC[C@H]1C(=O)N(C)[C@@H](CCCC)C(=O)N[C@@H](CCCN)C(=O)N[C@H](C(=O)NCC(N)=O)CSCC(=O)N[C@@H](Cc2ccc(O)cc2)C(=O)N(C)[C@@H](C)C(=O)N[C@@H](CC(N)=O)C(=O)N2CCC[C@H]2C(=O)N[C@@H](Cc2cnc[nH]2)C(=O)N[C@@H](CC(C)C)C(=O)N2C[C@@H](O)C[C@H]2C(=O)N[C@@H](Cc2c[nH]c3ccccc23)C(=O)N[C@@H](CO)C(=O)N[C@@H](Cc2csc3ccccc23)C(=O)N1C [Example 1051] ({CH2CO}-Y[NMeA]NPHL[cisHyp]WS[Bta][NMeNle][NMeNle][Orn]CG-NH2; thioether N-14)	6.76 to 30.3	0.158 to 4.71
CCCC[C@H]1C(=O)N(C)[C@@H](CCCC)C(=O)N[C@@H](CCCNC(=N)N)C(=O)N[C@H](C(=O)NCC(N)=O)CSCC(=O)N[C@@H](Cc2ccc(O)cc2)C(=O)N(C)[C@@H](C)C(=O)N[C@@H](CC(N)=O)C(=O)N[C@@H](Cc2cnc[nH]2)C(=O)N2CCC[C@H]2C(=O)N[C@@H](CC(C)C)C(=O)N2CCC[C@H]2C(=O)N[C@@H](Cc2c[nH]c3ccccc23)C(=O)N[C@@H](CO)C(=O)N[C@@H](Cc2csc3ccccc23)C(=O)N1C [Example 1052] ({CH2CO}-Y[NMeA]NHPLPWS[Bta][NMeNle][NMeNle]RCG-NH2; thioether N-14)	> 30.5	> 74.3
CCCC[C@H]1C(=O)N(C)[C@@H](CCCC)C(=O)N[C@@H](CCCNC(=N)N)C(=O)N[C@H](C(=O)NCC(N)=O)CSCC(=O)N[C@@H](Cc2ccccc2)C(=O)N(C)[C@@H](C)C(=O)N[C@@H](CC(N)=O)C(=O)N2CCC[C@H]2C(=O)N[C@@H](Cc2cnc[nH]2)C(=O)NCC(=O)N(C)CC(=O)N[C@@H](Cc2c[nH]c3ccccc23)C(=O)N[C@@H](CO)C(=O)N[C@@H](Cc2c[nH]c3ccccc23)C(=O)N1C [Example 1053] ({CH2CO}-F[NMeA]NPHG[Sar]WSW[NMeNle][NMeNle]RCG-NH2; thioether N-14)	> 30.5	> 74.3
CCCC[C@H]1C(=O)N(C)[C@@H](CCCC)C(=O)N[C@@H](CCCNC(=N)N)C(=O)N[C@H](C(=O)NCC(N)=O)CSCC(=O)N[C@@H](Cc2ccccc2)C(=O)N(C)[C@@H](C)C(=O)N[C@@H](CC(N)=O)C(=O)N2CCC[C@H]2C(=O)N[C@@H](Cc2cnc[nH]2)C(=O)N[C@@H](CCC(=O)O)C(=O)N(C)CC(=O)N[C@@H](Cc2c[nH]c3ccccc23)C(=O)N[C@@H](CO)C(=O)N[C@@H](Cc2c[nH]c3ccccc23)C(=O)N1C [Example 1054] ({CH2CO}-F[NMeA]NPHE[Sar]WSW[NMeNle][NMeNle]RCG-NH2; thioether N-14)	0.385 to 6.74	4.78 to 72.9
CCCC[C@H]1C(=O)N(C)[C@@H](CCCC)C(=O)N[C@@H](CCCN)C(=O)N[C@H](C(=O)NCC(N)=O)CSCC(=O)N[C@@H](Cc2ccccc2)C(=O)N(C)[C@@H](C)C(=O)N[C@@H](CC(N)=O)C(=O)N2CCC[C@H]2C(=O)N[C@@H](Cc2cnc[nH]2)C(=O)N[C@@H](CC(C)C)C(=O)N(C)CC(=O)N[C@@H](Cc2c[nH]c3ccccc23)C(=O)N[C@@H](CO)C(=O)N[C@@H](Cc2c[nH]c3ccccc23)C(=O)N1C [Example 1055] ({CH2CO}-F[NMeA]NPHL[Sar]WSW[NMeNle][NMeNle][Orn]CG-NH2; thioether N-14)	6.76 to 30.3	4.78 to 72.9
CCCC[C@H]1C(=O)N(C)[C@@H](CCCC)C(=O)N[C@@H](CC(=O)O)C(=O)N[C@H](C(=O)NCC(N)=O)CSCC(=O)N[C@@H](Cc2ccccc2)C(=O)N(C)[C@@H](C)C(=O)N[C@@H](CC(=O)O)C(=O)N2CCC[C@H]2C(=O)N[C@@H](Cc2cnc[nH]2)C(=O)N[C@@H](CCCNC(=N)N)C(=O)N(C)CC(=O)N[C@@H](Cc2c[nH]c3ccccc23)C(=O)N[C@@H](CCCNC(=N)N)C(=O)N[C@@H](Cc2c[nH]c3ccccc23)C(=O)N1C [Example 1056] ({CH2CO}-F[NMeA]DPHR[Sar]WRW[NMeNle][NMeNle]DCG-NH2; thioether N-14)	6.76 to 30.3	4.78 to 72.9
CCCC[C@H]1C(=O)N[C@@H](CCCNC(=N)N)C(=O)N[C@H](C(=O)NCC(N)=O)CSCC(=O)N[C@@H](Cc2ccccc2)C(=O)N(C)[C@@H](C)C(=O)N[C@@H](CC(N)=O)C(=O)N2CCC[C@H]2C(=O)N[C@@H](Cc2cnc[nH]2)C(=O)N[C@@H](CC(C)C)C(=O)N(C)CC(=O)N[C@@H](Cc2c[nH]c3ccccc23)C(=O)N[C@@H](CO)C(=O)N[C@@H](Cc2c[nH]c3ccccc23)C(=O)N[C@@H](C)C(=O)N1C [Example 1057] (HELM PEPTIDE1{[O=C(C[*:3])[*:2]].F.[meA].N.P.H.L.[Sar].W.S.W.A.[CCCC[C@@H](C(=O)[*:2])N(C)[*:1]].R.C.G.[am]}$PEPTIDE1,PEPTIDE1,1:R3-15:R3$$$V2.0)	> 30.5	> 74.3
CCCC[C@H]1C(=O)N[C@@H](CCCNC(=N)N)C(=O)N[C@H](C(=O)NCC(N)=O)CSCC(=O)N[C@@H](Cc2ccccc2)C(=O)N(C)[C@@H](C)C(=O)N[C@@H](CC(N)=O)C(=O)N2CCC[C@H]2C(=O)N[C@@H](Cc2cnc[nH]2)C(=O)N[C@@H](CC(C)C)C(=O)N(C)CC(=O)N[C@@H](Cc2c[nH]c3ccccc23)C(=O)N[C@@H](CO)C(=O)N[C@@H](Cc2c[nH]c3ccccc23)C(=O)N[C@@H](Cc2c(F)c(F)c(F)c(F)c2F)C(=O)N1C [Example 1058] ({CH2CO}-F[NMeA]NPHL[Sar]WSW[Phe(F5)][NMeNle]RCG-NH2; thioether N-14)	> 30.5	> 74.3
